Test systems include CCRF-CEM leukemia; HOP-62 NSCLC; IGROV1 ovarian; M14 melanoma; MOLT-4 leukemia; NCI-H522 lung; OVCAR-4 ovarian; SK-MEL-28 melanoma; SK-MEL-5 melanoma; SR leukemia.
What all share (assay): inhibition of tumour cell growth, NCI panel, 48 h

These results are taken from PubChem BioAssay (NCI).

Where “and” joins values, the source holds several entries; their conditions need not be identical. Equal entries are not always repeated.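 Dose response: 5 concentrations. Exposure: 48 h. Format: 96-well plates. Endpoint: linear interpolation; highest concentration if not reached. The concentration for 50% growth inhibition is given as GI50. TGI: total growth inhibition.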 Some results are limits rather than exact numbers.

On to `CC1(C)CC2(C)OC2C2(C1)N=NC(=Nc1ccccc1)O2` (centres undefined), for which the GI50 in the test on CCRF-CEM leukemia was 2.46 µM; in the test on HOP-62 NSCLC it was 8.76 µM; in the test with IGROV1 ovarian, 2.48 µM; with M14 melanoma, 5.15 µM; in the test with MOLT-4 leukemia, 2.63 µM; in the test with NCI-H522 lung it was 1.61 µM. The GI50 was 3.45 µM with OVCAR-4 ovarian, 11.9 µM in the test on SK-MEL-28 melanoma, 5.48 µM in the test on SK-MEL-5 melanoma and 2.56 µM with SR leukemia. Also, the TGI worked out at 8.07 µM in the test with CCRF-CEM leukemia; 30.4 µM with HOP-62 NSCLC; 5.99 µM with IGROV1 ovarian; 19.2 µM in the test with M14 melanoma; 9.96 µM in the test on MOLT-4 leukemia; 3.33 µM in the test with NCI-H522 lung. In addition, the TGI in the test on OVCAR-4 ovarian turned out to be 17.2 µM; in the test with SK-MEL-28 melanoma, 27.4 µM; in the test with SK-MEL-5 melanoma, 18.5 µM; in the test on SR leukemia, 8.68 µM.
For the molecule `N#CC1(C#N)C2C=CC(C3CCC=C32)C1(C#N)C#N` (centres undefined), the TGI is more than 7.86 µM with CCRF-CEM leukemia; more than 10 µM in the test with HOP-62 NSCLC; more than 10 µM in the test with IGROV1 ovarian; more than 10 µM in the test with M14 melanoma; 6.52 µM with MOLT-4 leukemia; more than 7.9 µM with NCI-H522 lung. The TGI in the test on OVCAR-4 ovarian, with SK-MEL-28 melanoma, in the test on SK-MEL-5 melanoma and in the test with SR leukemia was more than 10 µM in each case.
Regarding `COc1ccc(N(Cc2cc(OC)c(OC)c(OC)c2)C2OC(=O)c3ccccc32)cc1` (centres undefined), the GI50 is 0.435 µM in the test with CCRF-CEM leukemia; 0.783 µM in the test on HOP-62 NSCLC; 1.07 µM in the test on IGROV1 ovarian; 0.39 µM with M14 melanoma; 0.661 µM with MOLT-4 leukemia; 0.286 µM in the test with NCI-H522 lung. The GI50 was 5.95 µM with OVCAR-4 ovarian, 0.474 µM with SK-MEL-5 melanoma and 0.456 µM with SR leukemia. Moreover, the TGI was more than 100 µM in the test on CCRF-CEM leukemia; more than 100 µM in the test with HOP-62 NSCLC; more than 100 µM in the test on IGROV1 ovarian; more than 100 µM in the test on M14 melanoma; more than 100 µM with MOLT-4 leukemia; 3.11 µM with NCI-H522 lung. In addition, the TGI was more than 100 µM in the test on OVCAR-4 ovarian, more than 100 µM with SK-MEL-28 melanoma, 53.1 µM in the test with SK-MEL-5 melanoma and more than 100 µM in the test with SR leukemia.
`CCCCCCN(CCCCCC)CC(O)c1cccc2ccc(Cl)cc12` (centres undefined): the GI50 in the test with CCRF-CEM leukemia is 11.4 µM; in the test with HOP-62 NSCLC, 3.71 µM; with IGROV1 ovarian it was 10.3 µM; with M14 melanoma, 9.48 µM; with MOLT-4 leukemia, 7.81 µM; in the test on NCI-H522 lung, 7.94 µM. Also, the GI50 with OVCAR-4 ovarian is 7.44 µM; in the test on SK-MEL-28 melanoma, 12 µM; in the test on SK-MEL-5 melanoma, 2.12 µM; with SR leukemia it was 3.55 µM. The TGI in the test on CCRF-CEM leukemia worked out at 31.7 µM; with HOP-62 NSCLC, 14.5 µM; with IGROV1 ovarian, 23.8 µM; in the test on M14 melanoma it was 22 µM; in the test on MOLT-4 leukemia, 26.1 µM; with NCI-H522 lung, 23 µM. Also, the TGI in the test on OVCAR-4 ovarian stood at 33 µM; in the test with SK-MEL-28 melanoma it was 24.3 µM; in the test on SK-MEL-5 melanoma, 5.17 µM; in the test on SR leukemia, 9.85 µM.
In the case of `COc1cc(OC)c(/C=C/S(=O)(=O)Cc2ccc(OC)c(NCC(=O)O)c2)c(OC)c1`, the GI50 in the test with CCRF-CEM leukemia is 0.159 µM and 0.291 µM; in the test with HOP-62 NSCLC it was 0.291 µM and 0.0874 µM; in the test on IGROV1 ovarian, 0.152 µM and 0.244 µM; with M14 melanoma, 0.0965 µM and 0.0467 µM; in the test on MOLT-4 leukemia, 0.408 µM and 0.466 µM; in the test with NCI-H522 lung it was 0.0374 µM and 0.0205 µM. Further, the GI50 was > 2.91 µM and 0.417 µM in the test with OVCAR-4 ovarian; 0.34 µM in the test with SK-MEL-28 melanoma; 0.113 µM and 0.0684 µM in the test with SK-MEL-5 melanoma; 0.181 µM and 0.206 µM with SR leukemia. The TGI is more than 100 µM in the test on CCRF-CEM leukemia; more than 100 µM with HOP-62 NSCLC; more than 100 µM with IGROV1 ovarian; more than 10 µM in the test on M14 melanoma; more than 100 µM with MOLT-4 leukemia; 0.213 µM and 0.0608 µM in the test on NCI-H522 lung. Moreover, the TGI was more than 100 µM in the test with OVCAR-4 ovarian; more than 10 µM in the test with SK-MEL-28 melanoma; 1.29 µM and 1.01 µM with SK-MEL-5 melanoma; more than 100 µM with SR leukemia.
As for `CCOc1cccnc1/C=N/NC(N)=S`, the GI50 is 3 µM in the test on CCRF-CEM leukemia; 3.71 µM with HOP-62 NSCLC; 5.01 µM with IGROV1 ovarian; 3.14 µM with M14 melanoma; 3.13 µM in the test with MOLT-4 leukemia; 3.05 µM with NCI-H522 lung. Besides, the GI50 with OVCAR-4 ovarian is 2.79 µM; in the test with SK-MEL-28 melanoma it was 4.75 µM; in the test on SK-MEL-5 melanoma, 3.4 µM; in the test on SR leukemia it was 2.98 µM. The TGI is 12 µM in the test on CCRF-CEM leukemia; 48.5 µM in the test with HOP-62 NSCLC; more than 100 µM in the test on IGROV1 ovarian; 15 µM in the test on M14 melanoma; 10.4 µM with MOLT-4 leukemia; more than 100 µM in the test with NCI-H522 lung. Further, the TGI in the test on OVCAR-4 ovarian was more than 100 µM; with SK-MEL-28 melanoma, more than 100 µM; in the test on SK-MEL-5 melanoma, more than 100 µM; with SR leukemia, 12.3 µM.
